According to patent US10053443B2, “2-phenylbenzofuran derivatives, method for preparing the same and use of the same for treating inflammatory disease” (KOREA RESEARCH INSTITUTE OF BIOSCIENCE AND BIOTECHNOLOGY, priority 2014, dated 2018):

How the values were obtained:
[1] = tested on: bronchial asthma induced animal model; assay: Airway hyperreactivity (Penh) in ovalbumin-induced bronchial asthma mice; assay type: in vivo, mouse; settings: OVA asthma Balb/c mice, 5 or 15 mg/kg PO, FIG. 1
Experimental: (§1) 6 week old Balb/c female mice in the average weight of 20 g were adapted for 1 week. 2 mg of aluminum hydroxide (A8222, Sigma, St. Louis, Mo.) and 20 μg of ovalbumin (A5503, sigma, St. Louis, Mo.) were suspended in phosphate buffer (pH 7.4). Each mouse was administered with 200 μl of the phosphate buffer suspension via intraperitoneal injection for sensitization at 2 weeks intervals. The mouse was forced to inhale 1% ovalbumin (OVA) through ultrasonic atomizer for 30 minutes a day for 3 days after the first intraperitoneal injection of ovalbumin. 24 hours after the antigen administration, airway hyperreactivity was measured. 48 hours later, a lethal dose of pentobarbital (Entobar, Hanlim Pharma. Co., Ltd.) was administered to the mouse. The bronchus was opened and the alveoli were washed with 1.4 ml of saline. Then, the test samples were obtained. The normal control (NC) was not administered with ovalbumin nor inhaled. […]
After performing the experiment of Experimental Example <3-1> above, airway resistance was measured by using one chamber plethysmography (All Medicus, Seoul) to obtain Penh (enhanced pause) values which were the mathematically calculated numbers reflecting airway obstruction in order to measure airway hyperreactivity. To measure Penh value, basal value in normal breathing status was first measured. […]

[2] = tested on: inflammatory cells (eosinophils); assay: Number of inflammatory cells in bronchoalveolar lavage fluid (Diff-Quick); assay type: in vivo, mouse; settings: OVA asthma Balb/c mice, 5 or 15 mg/kg PO, FIG. 5
Experimental: as §1, with “inhaled. The asthma induced group (OVA) was administered with ovalbumin and inhaled to induce bronchial asthma. The comparative control was orally administered with dexamethasone (2 mg/kg, PO) one hour before the inhalation (DEX).” for “inhaled.”
After performing the experiment of Experimental Example <3-1> above, the number of inflammatory cells in bronchoalveolar lavage fluid was measured by Diff-Quick staining.

[3] = tested on: Nitrogen Oxide (NO) generation; assay: Inhibition of nitrogen oxide (NO) generation in LPS-treated Raw 264.7 cells (Griess); assay type: cell-based, mouse; settings: Raw 264.7, LPS 500 ng/ml, 24 hours
Experimental: Raw 264.7 (ATCC TIB71) cells were inoculated in a 96-well plate containing the same medium as used in Experimental Example 1 at the density of 1×10^5 cells/well. The cells were cultured in 5% CO2 at 37° C. for 4 hours to attach the cells onto the plate. The cells were treated with each sample at different concentrations, followed by further culture for 1 hour. […] were treated thereto at the final concentration of 500 ng/ml, followed by further culture for 24 hours. 100 μl of the supernatant was taken and transferred in a new plate, which was mixed with Griess reagent (a mixture of 1% sulfanilamide, 0.1% N-[1-naphthyl]-ethylenediamine dihydrochloride, and 5% phosphoric acid), followed by reaction for 10 minutes. Then, OD540 was measured. NO generation was quantified by using the sodium nitrite standard curve prepared from […] dissolved in the same medium at different concentrations. Considering the NO generation of the inflammation induced macrophages as 100%, the NO generation inhibition rate was calculated and presented in Table 7.

interleukin 13 = assay: Interleukin 13 in bronchoalveolar lavage fluid of asthma mice (ELISA); assay type: in vivo, mouse; settings: OVA asthma Balb/c mice, 5 or 15 mg/kg PO, FIG. 3
Experimental: as §1, with “inhaled. The asthma induced group (OVA) was administered with ovalbumin and inhaled to induce bronchial asthma.” for “inhaled.”
After performing the experiment of Experimental Example <3-1> above, Th2 cytokine (interleukin 5, 13) in bronchoalveolar was measured by sandwich type enzyme immunoassay. […] The content of each cytokine was measured using the kit according to the manufacturer's instruction.

Compound: COc1cc(CCCO)cc2cc(-c3ccc(C)cc3)oc12 [Example 4, 3-(7-methoxy-2-p-tolylbenzofuran-5-yl)propane-1-ol]
- Penh value (airway hyperreactivity) [1]: significantly reduced
- infiltration of inflammatory cells (eosinophils) in bronchoalveolar lavage fluid [2]: efficiently reduce
- Grades of NO generation inhibition rate (%) [3]: B (B: 25<B≤35)
- content of interleukin 13 in bronchoalveolar lavage fluid (interleukin 13): significantly reduced
